The values that follow come from ChEMBL document CHEMBL5715260, “Selectivity Literature for EUbOPEN Chemogenomic Library” (2024).

What all share (design): recommended concentration 1 uM
In assay [1] the target is T1, Alpha trans-inducing protein (Human alphaherpesvirus 1) (UniProt A0A5J6DW59). Put plainly: Selectivity interaction (Reporter gene assay) EUB0001149a UL48. (Reporter assays use an easily measured gene product as a stand-in for the process of interest.)
For assay [2], the target named is Steroidogenic factor 1 (Homo sapiens) (UniProt Q13285). The experiment in a line: Selectivity interaction (Reporter gene assay) EUB0001149a NR5A1.
Steroidogenic factor 1 (Homo sapiens), sequence (Q13285 whole entry): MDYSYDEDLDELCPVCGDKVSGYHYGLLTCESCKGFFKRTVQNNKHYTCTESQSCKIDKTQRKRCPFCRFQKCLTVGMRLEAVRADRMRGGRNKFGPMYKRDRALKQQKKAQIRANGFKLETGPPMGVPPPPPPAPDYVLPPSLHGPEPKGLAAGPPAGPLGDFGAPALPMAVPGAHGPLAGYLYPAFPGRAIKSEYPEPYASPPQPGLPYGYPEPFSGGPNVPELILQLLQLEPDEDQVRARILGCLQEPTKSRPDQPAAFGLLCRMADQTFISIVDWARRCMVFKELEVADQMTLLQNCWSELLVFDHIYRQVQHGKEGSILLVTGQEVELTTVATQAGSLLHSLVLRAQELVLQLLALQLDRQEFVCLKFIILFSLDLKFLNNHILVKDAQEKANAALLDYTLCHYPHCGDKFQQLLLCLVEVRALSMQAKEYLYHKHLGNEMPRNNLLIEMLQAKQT
The target of assay [3] is T2, Nuclear receptor subfamily 2 group C member 1 (Homo sapiens) (UniProt P13056).
T2 sequence (whole entry): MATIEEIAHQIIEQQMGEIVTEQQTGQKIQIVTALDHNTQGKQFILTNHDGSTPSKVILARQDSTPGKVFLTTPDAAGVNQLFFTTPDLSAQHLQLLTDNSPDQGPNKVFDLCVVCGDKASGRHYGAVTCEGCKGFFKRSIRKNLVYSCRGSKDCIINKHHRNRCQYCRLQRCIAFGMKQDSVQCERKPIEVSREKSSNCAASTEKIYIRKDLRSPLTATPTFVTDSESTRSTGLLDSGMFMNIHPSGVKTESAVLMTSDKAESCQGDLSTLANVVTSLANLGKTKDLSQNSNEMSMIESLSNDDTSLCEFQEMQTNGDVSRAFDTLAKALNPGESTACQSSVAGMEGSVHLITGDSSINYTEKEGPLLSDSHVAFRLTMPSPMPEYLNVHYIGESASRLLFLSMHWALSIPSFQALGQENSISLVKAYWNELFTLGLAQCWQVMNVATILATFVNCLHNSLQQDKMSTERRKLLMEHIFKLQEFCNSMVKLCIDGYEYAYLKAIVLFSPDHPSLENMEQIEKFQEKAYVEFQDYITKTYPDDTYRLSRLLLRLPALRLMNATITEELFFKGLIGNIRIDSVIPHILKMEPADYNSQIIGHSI
Put plainly: Selectivity interaction (Reporter gene assay) EUB0001149a NR2C1.

The target of assay [4] is Peroxisome proliferator-activated receptor alpha (Homo sapiens) (UniProt Q07869). The experiment in a line: Selectivity interaction (Reporter gene assay) EUB0001149a PPARA. To be noted: screened at recom. conc., Selectivity number of off-targets 1.0, Selectivity number of targets 19.0, Source Knowledge inhouse.
Peroxisome proliferator-activated receptor alpha (Homo sapiens), sequence (Q07869 whole entry): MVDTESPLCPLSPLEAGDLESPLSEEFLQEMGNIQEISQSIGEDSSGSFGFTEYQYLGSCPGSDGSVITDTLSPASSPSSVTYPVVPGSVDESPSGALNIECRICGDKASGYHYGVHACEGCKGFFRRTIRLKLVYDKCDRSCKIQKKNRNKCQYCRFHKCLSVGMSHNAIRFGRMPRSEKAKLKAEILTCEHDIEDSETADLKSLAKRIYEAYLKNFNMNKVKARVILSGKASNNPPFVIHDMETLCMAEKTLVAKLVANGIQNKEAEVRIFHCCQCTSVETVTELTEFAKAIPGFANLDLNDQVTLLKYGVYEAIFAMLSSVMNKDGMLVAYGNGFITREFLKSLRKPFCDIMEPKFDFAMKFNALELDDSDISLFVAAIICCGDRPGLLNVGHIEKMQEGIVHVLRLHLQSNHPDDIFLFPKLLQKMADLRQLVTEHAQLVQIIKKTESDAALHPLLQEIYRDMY
The target in assay [5] is Nuclear receptor subfamily 4immunitygroup A member 1 (Homo sapiens) (UniProt P22736). The experiment in a line: Selectivity interaction (Reporter gene assay) EUB0001149a NR4A1.
Nuclear receptor subfamily 4immunitygroup A member 1 (Homo sapiens), sequence (P22736 whole entry): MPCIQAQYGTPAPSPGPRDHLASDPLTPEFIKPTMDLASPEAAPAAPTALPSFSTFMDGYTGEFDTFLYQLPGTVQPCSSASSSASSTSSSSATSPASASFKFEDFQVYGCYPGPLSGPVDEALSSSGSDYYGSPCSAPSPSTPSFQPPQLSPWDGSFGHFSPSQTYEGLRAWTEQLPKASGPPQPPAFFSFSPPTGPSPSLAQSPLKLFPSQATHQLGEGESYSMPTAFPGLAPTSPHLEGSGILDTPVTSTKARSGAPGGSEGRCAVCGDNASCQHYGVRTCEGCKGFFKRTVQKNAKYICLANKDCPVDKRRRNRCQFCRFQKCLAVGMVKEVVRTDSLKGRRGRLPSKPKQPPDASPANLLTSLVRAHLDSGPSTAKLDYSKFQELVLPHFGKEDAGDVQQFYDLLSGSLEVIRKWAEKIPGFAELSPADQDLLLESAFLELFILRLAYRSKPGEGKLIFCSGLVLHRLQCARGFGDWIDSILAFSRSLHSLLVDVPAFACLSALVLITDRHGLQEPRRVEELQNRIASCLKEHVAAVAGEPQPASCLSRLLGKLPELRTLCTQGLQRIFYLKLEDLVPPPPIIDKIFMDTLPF
Assay [6] concerns the target T3, Hepatocyte nuclear factor 4-alpha (Homo sapiens) (UniProt P41235).
T3 sequence (whole entry): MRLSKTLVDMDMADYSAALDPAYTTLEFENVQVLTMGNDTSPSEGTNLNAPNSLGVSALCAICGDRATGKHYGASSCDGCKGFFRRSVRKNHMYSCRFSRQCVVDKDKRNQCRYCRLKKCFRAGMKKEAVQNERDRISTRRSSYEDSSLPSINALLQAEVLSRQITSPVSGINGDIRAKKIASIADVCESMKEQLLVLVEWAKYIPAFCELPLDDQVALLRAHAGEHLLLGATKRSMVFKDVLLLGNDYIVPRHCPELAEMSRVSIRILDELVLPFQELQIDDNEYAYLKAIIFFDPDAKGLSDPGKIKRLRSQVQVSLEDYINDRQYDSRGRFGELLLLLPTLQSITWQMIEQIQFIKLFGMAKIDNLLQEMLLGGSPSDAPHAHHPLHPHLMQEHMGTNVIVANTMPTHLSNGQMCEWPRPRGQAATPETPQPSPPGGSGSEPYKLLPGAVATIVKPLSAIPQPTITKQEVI
Put plainly: Selectivity interaction (Reporter gene assay) EUB0001149a HNF4A.

Assay [7] addresses T4, Retinoic acid receptor RXR-alpha (Homo sapiens) (UniProt P19793).
T4 sequence (whole entry): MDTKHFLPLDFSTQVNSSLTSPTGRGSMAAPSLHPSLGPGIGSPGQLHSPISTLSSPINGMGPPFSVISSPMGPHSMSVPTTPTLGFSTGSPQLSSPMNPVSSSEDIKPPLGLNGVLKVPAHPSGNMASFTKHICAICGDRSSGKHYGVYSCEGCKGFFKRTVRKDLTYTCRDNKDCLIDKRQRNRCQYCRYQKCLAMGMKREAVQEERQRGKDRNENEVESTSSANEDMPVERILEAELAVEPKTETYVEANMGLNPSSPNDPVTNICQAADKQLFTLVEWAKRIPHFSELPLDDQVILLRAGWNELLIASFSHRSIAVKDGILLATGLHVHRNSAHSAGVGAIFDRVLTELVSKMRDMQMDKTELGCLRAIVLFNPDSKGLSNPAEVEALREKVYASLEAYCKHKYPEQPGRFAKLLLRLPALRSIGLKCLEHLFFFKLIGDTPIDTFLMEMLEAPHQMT
The experiment in a line: Selectivity interaction (Reporter gene assay) EUB0001149a RXRA. To be noted: reference bexarotene 1 uM, Selectivity number of off-targets 0.0, Selectivity number of targets 1.0, Source Knowledge inhouse.

The target in assay [8] is Nuclear receptor subfamily 2 group E member 1 (Homo sapiens) (UniProt Q9Y466). Put plainly: Selectivity interaction (Reporter gene assay) EUB0001149a NR2E1.
Nuclear receptor subfamily 2 group E member 1 (Homo sapiens), sequence (Q9Y466 whole entry): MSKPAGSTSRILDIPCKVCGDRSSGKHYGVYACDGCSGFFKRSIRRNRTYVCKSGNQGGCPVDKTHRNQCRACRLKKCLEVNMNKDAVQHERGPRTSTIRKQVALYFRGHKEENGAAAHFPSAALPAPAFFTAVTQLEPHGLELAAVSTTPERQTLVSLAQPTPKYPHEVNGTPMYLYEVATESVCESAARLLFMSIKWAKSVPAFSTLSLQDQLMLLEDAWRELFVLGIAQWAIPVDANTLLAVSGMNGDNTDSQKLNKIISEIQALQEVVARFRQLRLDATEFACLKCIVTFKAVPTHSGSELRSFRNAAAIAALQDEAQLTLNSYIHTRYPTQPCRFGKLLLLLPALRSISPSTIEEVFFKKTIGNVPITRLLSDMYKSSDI
Assay [9] deals with T2, Nuclear receptor subfamily 2 group C member 1 (Homo sapiens). The experiment in a line: Selectivity interaction (Reporter gene assay) EUB0001145aNa NR2C1.
Assay [10] addresses T3, Hepatocyte nuclear factor 4-alpha (Homo sapiens). Put plainly: Selectivity interaction (Reporter gene assay) EUB0001145aNa HNF4A.
In assay [11] the target is Nuclear receptor subfamily 2 group E member 1 (Homo sapiens) (UniProt Q9Y466). The experiment in a line: Selectivity interaction (Reporter gene assay) EUB0001145aNa NR2E1.
Assay [12] has as its target Nuclear receptor subfamily 4immunitygroup A member 1 (Homo sapiens) (UniProt P22736). The experiment in a line: Selectivity interaction (Reporter gene assay) EUB0001145aNa NR4A1.
The target in assay [13] is Steroidogenic factor 1 (Homo sapiens) (UniProt Q13285). Put plainly: Selectivity interaction (Reporter gene assay) EUB0001145aNa NR5A1.
Assay [14] has as its target T1, Alpha trans-inducing protein (Human alphaherpesvirus 1). Put plainly: Selectivity interaction (Reporter gene assay) EUB0001145aNa UL48.
Assay [15] deals with T4, Retinoic acid receptor RXR-alpha (Homo sapiens). The experiment in a line: Selectivity interaction (Reporter gene assay) EUB0001145aNa RXRA. To be noted: reference bexarotene 1 uM, Selectivity number of off-targets 0.0, Selectivity number of targets 1.0, Source Knowledge inhouse.
The target in assay [16] is T5, Peroxisome proliferator-activated receptor gamma (Homo sapiens) (UniProt P37231).
T5 sequence (whole entry): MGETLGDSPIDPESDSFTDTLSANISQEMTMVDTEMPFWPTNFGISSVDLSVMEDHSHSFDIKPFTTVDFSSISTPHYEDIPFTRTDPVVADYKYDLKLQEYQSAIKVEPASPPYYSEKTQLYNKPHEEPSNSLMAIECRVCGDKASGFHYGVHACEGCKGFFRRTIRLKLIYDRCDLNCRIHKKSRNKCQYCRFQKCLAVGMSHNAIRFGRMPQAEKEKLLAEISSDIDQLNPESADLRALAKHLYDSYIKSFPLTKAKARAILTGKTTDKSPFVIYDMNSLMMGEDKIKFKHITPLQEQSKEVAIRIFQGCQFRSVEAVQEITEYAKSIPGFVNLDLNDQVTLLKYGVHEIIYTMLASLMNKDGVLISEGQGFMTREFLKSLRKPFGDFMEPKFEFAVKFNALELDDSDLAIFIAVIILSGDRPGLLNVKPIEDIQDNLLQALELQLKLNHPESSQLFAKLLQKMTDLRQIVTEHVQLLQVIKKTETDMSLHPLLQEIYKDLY
Put plainly: Selectivity interaction (Reporter gene assay) EUB0001141a PPARG. To be noted: screened at recom. conc., Selectivity number of off-targets 1.0, Selectivity number of targets 19.0, Source Knowledge inhouse.

For assay [17], the target named is Nuclear receptor subfamily 4immunitygroup A member 1 (Homo sapiens) (UniProt P22736). Put plainly: Selectivity interaction (Reporter gene assay) EUB0001141a NR4A1.
For assay [18], the target named is T1, Alpha trans-inducing protein (Human alphaherpesvirus 1). The experiment in a line: Selectivity interaction (Reporter gene assay) EUB0001141a UL48.
The target of assay [19] is Steroidogenic factor 1 (Homo sapiens) (UniProt Q13285). The experiment in a line: Selectivity interaction (Reporter gene assay) EUB0001141a NR5A1.
For assay [20], the target named is T3, Hepatocyte nuclear factor 4-alpha (Homo sapiens). Put plainly: Selectivity interaction (Reporter gene assay) EUB0001141a HNF4A.
In assay [21] the target is T4, Retinoic acid receptor RXR-alpha (Homo sapiens). The experiment in a line: Selectivity interaction (Reporter gene assay) EUB0001141a RXRA. To be noted: reference bexarotene 1 uM, Selectivity number of off-targets 0.0, Selectivity number of targets 1.0, Source Knowledge inhouse.
For assay [22], the target named is Nuclear receptor subfamily 2 group E member 1 (Homo sapiens) (UniProt Q9Y466). The experiment in a line: Selectivity interaction (Reporter gene assay) EUB0001141a NR2E1.
The target in assay [23] is T2, Nuclear receptor subfamily 2 group C member 1 (Homo sapiens). Put plainly: Selectivity interaction (Reporter gene assay) EUB0001141a NR2C1.
The target in assay [24] is T4, Retinoic acid receptor RXR-alpha (Homo sapiens). Put plainly: Selectivity interaction (Reporter gene assay) EUB0001144a RXRA. To be noted: reference bexarotene 1 uM, Selectivity number of off-targets 0.0, Selectivity number of targets 1.0, Source Knowledge inhouse.
For assay [25], the target named is T3, Hepatocyte nuclear factor 4-alpha (Homo sapiens). Put plainly: Selectivity interaction (Reporter gene assay) EUB0001144a HNF4A.
The target of assay [26] is Nuclear receptor subfamily 2 group E member 1 (Homo sapiens) (UniProt Q9Y466). Put plainly: Selectivity interaction (Reporter gene assay) EUB0001144a NR2E1.
For assay [27], the target named is Steroidogenic factor 1 (Homo sapiens) (UniProt Q13285). Put plainly: Selectivity interaction (Reporter gene assay) EUB0001144a NR5A1.
Assay [28] deals with T1, Alpha trans-inducing protein (Human alphaherpesvirus 1). The experiment in a line: Selectivity interaction (Reporter gene assay) EUB0001144a UL48.
In assay [29] the target is T2, Nuclear receptor subfamily 2 group C member 1 (Homo sapiens). The experiment in a line: Selectivity interaction (Reporter gene assay) EUB0001144a NR2C1.
For assay [30], the target named is Nuclear receptor subfamily 4immunitygroup A member 1 (Homo sapiens) (UniProt P22736). The experiment in a line: Selectivity interaction (Reporter gene assay) EUB0001144a NR4A1.

T1 sequence (A0A5J6DW59 as listed by the source): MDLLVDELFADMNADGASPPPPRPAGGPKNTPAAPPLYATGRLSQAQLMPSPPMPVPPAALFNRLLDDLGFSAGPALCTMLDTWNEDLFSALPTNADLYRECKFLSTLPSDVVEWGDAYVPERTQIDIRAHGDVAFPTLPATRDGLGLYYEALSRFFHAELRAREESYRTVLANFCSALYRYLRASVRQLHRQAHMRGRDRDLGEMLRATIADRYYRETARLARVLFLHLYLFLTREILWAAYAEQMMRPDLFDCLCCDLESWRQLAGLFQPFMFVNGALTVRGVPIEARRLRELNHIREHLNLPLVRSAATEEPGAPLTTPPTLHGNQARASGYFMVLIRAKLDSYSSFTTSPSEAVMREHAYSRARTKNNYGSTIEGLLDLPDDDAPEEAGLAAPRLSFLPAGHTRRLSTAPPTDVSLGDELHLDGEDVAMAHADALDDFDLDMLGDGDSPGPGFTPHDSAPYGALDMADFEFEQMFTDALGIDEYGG

Compound `O=C(O)CCCc1cc2cc(Cl)ccc2n1S(=O)(=O)c1ccc2ncsc2c1` displayed a P-value in assay [1] of 0.0075. The Fold activation in [2] came out at 1.16; in assay [4], 5.01; in assay [5], 1.09; in assay [6] it was 1.19. Also, the values for the Remaining activity in assay [3] and in assay [8] were 0.743 and 0.755, respectively. This compound also yielded a Relative activation in assay [7] of 1.07%.
With `CCO[C@H](COc1ccc(C(F)(F)F)cc1)CSc1ccc(OCC(=O)O)c(C)c1`, the Fold activation in [9] was 1.29; in [10] it was 1.17; in assay [11], 1.14; in assay [12], 1.09; in assay [13] it was 1.13. The compound also had a P-value in assay [14] of 0.0052. Moreover, the Relative activation in assay [15] was 0.702%.
On to `Cc1nc(-c2ccc(C(F)(F)F)cc2)sc1C(=O)NCc1ccc(OC(C)(C)C(=O)O)cc1`, for which the Fold activation in assay [16] turned out to be 2.82; in assay [19] it was 1.12; in assay [22] it was 0.997. The Remaining activity was 0.875 in [17], 0.924 in assay [20] and 0.982 in assay [23]. Also, the P-value in [18] stood at 7.52e-07. This compound returned a Relative activation in assay [21] of 0.895%.
`CCO[C@@H](Cc1ccc(OCCc2ccc(OS(C)(=O)=O)cc2)cc1)C(=O)O` registered a Relative activation in assay [24] of 0.813%. For the same compound, the Fold activation in assay [25] was determined as 1.01; in assay [26], 1.07; in assay [27], 1.01; in [29] it was 1.11. In [28], this compound came in with a P-value of 0.0008. For the same compound, in [30], the Remaining activity was 0.821.
